Reference: patent publication US4275164A, “Process and nutrient medium for growing microorganism” (priority 1979, dated 1981)

Assays:
[1] = system: creatinine iminohydrolase; test: Creatinine iminohydrolase activity, Small-scale Enzyme Production (Procedure 2; GDH assay); format: cell-based, ATCC 31546 (tentatively Flavobacterium filamentosum); conditions: for creatinine iminohydrolase yield of microbial cells (in words) / growth of the culture and enzyme production (in words): carbon source; for growth of the culture and enzyme production (in words): Example 2; for Optimum Concentration (carbon source): concentration which produced the highest creatinine iminohydrolase activity, Table II; for optimum concentration: fumaric acid as carbon source and creatinine varied simultaneously, Example 3
Method: (§1) A fresh sample of culture grown for two days on Medium No. 1 slants as described in Procedure 1 above was obtained. From this slant, a loopful of culture was inoculated into 25 ml of a microbial growth medium of the type employed in the present invention contained in a 250 ml Erlenmeyer flask. The microbial growth medium employed consisted of Tryp-Soy Broth, referred to hereinabove. Following inoculation of the culture into the Erlenmeyer flask, the flask was shaken at 200 rpm at 30° C. for eight hours to produce good cellular growth without lysis of the microbial cells. Thereafter, a sample of the contents of the flask was microscopically inspected for culture purity and then aseptically centrifuged at 15,000 xg in a refrigerated centrifuge (available from DuPont Instruments, Newton, CT) for 15 minutes to separate the cells from the Tryp-Soy Broth. The supernatant containing the Tryp-Soy Broth was discarded, and the solid material containing the precipitated microbial cells was then re-suspendedin a volume of sterile distilled water equal to that present before centrifugation. 2 ml of this latter suspension was then used as an inoculum for a 250 ml Erlenmeyer flask containing 25 ml of a production medium to obtain further cell growth and to promote enzyme production by the microorganism. The specific composition of the production medium was varied as described in the following examples. However, in each case, once the microorganism was transferred as a 2-ml inoculum to the flask containing the particular production medium of interest, the flask was shaken at 30° C., 200 rpm for 10 hours. Thereafter, samples of the culture were withdrawn, diluted and dry-cell weight was determined. In addition, a 2.5 ml aliquot of the culture was centrifuged at 15,000 xg in a refrigerated centrifuge to separate the cells from the production medium. The supernatant containing the production medium was discarded. The precipitated cells were disrupted as in Procedure 4 below, and enzyme activity was assayed as described in Procedure 5 below.
(§2) 0.2 ml of an enzyme solution and 0.4 ml of cell suspension were added to 1.4 ml of 0.05 M tris(hydroxymethyl)aminomethane (tris) buffer, pH 8.5, and 10^-3 M (ethylenedinitrilo)tetraacetic acid, dipotassium salt (K2 EDTA). The aforementioned enzyme solution contained per ml of deionized water: 2.5 mg lysozyme, 1 mg bovine pancreatic deoxyribonuclease, and 1 mg bovine pancreatic ribonuclease. The amount of cell suspension was adjusted to give a final optical density of about 1.0, and the final volume was made to 2.0 ml with tris buffer. The suspension was shaken in a water bath at 37° C. for 20 minutes. The cell debris was removed by centrifugation at 27,000 xg in a refrigerated centrifuge, and the supernatant was assayed for enzyme activity as described in Procedure 5 below.
(§3) To determine the creatinine iminohydrolase activity described in the Examples, a L-glutamic dehydrogenase, "GDH", assay method was employed. In the GDH assay method, production of ammonia from creatinine, which represents the activity of a creatinine iminohydrolase enzyme preparation,is measured using NADPH (nicotinamide-adenine dinucleotride phosphate, reduced form) in a GDH-catalyzed reaction as follows:
Creatinine is hydrolyzed to ammonia via the unknown activity of a creatinine iminohydrolase sample, and the resultant ammonia reacts with the reagent α-ketoglutaric acid in the presence of GDH as catalyst to produce glutamic acid. The latter reaction catalyzed by GDH uses the NADPH oxidation reaction (NADPH→NADP), the disappearance of the NADPH absorption peak at 340 nm providing the spectroscopically detectable means for monitoring the assay. That is, the rate of NADPH disappearance measures the rate of glutamic acid production which, in turn, measures the rate of ammonia production.

[2] = system: creatinine iminohydrolase; test: Creatinine iminohydrolase activity, Large-scale Enzyme Production (Procedure 3; GDH assay); format: cell-based, ATCC 31546 (tentatively Flavobacterium filamentosum); conditions: Procedure No. 3; glucose 1.0 wt% added, or control 0.0 wt%
Method: as §2
as §3, with “follows: […]” for “follows:”

microorganism ATCC 31546 [3] = test: Dry cell weight / growth, Large-scale Enzyme Production (Procedure 3); format: cell-based, tentatively Flavobacterium filamentosum (ATCC 31546); conditions: Procedure No. 3; glucose 1.0 wt% added, or control 0.0 wt%
Method: Large-scale enzyme production was carried out using a 150-liter fermentor as follows:
First, following the same steps described in Procedure 2 above, a fresh sample of the microorganism ATCC 31546 culture which had been grown for two days on Medium No. 1 slants was transferred into 25 ml of microbial growth medium contained in a 250-ml Erlenmeyer flask. The microbial growth medium was the same as that described in Procedure 2 above. The first stage of inoculum growth in the microbial growth medium was carried out by shaking the flask at 200 rpm, 25° C. for 12 hours. A sample of the contents of the flask was thereafter microscopically inspected for culture purity. Thereafter, in the second stage of inoculum growth in the microbial growth medium, the contents of two 250-ml Erlenmeyer flasks containing first-stage culture were transferred aseptically to a 14-liter fermentor containing 10 liters of sterilized microbial growth medium having the composition described in Procedure 2 above and also containing 0.01 wt% of a polyglycol anti-foam agent sold under the tradename Polyglycol P-2000 by Dow Chemicals, Midland, MI. […] At this point, a sufficient quantity of cells was available to form an inoculum for the 150-liter fermentor. […] Dissolved oxygen concentration and pH were monitored continuously throughout the 12-hour period. […]

microorganism ATCC 31546 [4] = test: Dry cell weight, Small-scale Enzyme Production (Procedure 2); format: cell-based, tentatively Flavobacterium filamentosum (ATCC 31546); conditions: Procedure No. 2; glucose 1.0 wt% added, or control 0.0 wt%
Method: as §1, with “The specific composition of the production medium was varied as described in the following examples. However, in each case, once the microorganism was transferred as a 2-ml inoculum to the flask containing the particular production medium of interest, the flask was shaken at 30° C., 200 rpm for 10 hours.” left out, “In addition, a 2.5 ml aliquot of the culture was centrifuged at 15,000 xg in a refrigerated centrifuge to separate the cells from the production medium. The supernatant containing the production medium was discarded. The precipitated cells were disrupted as in Procedure 4 below, and enzyme activity was assayed as described in Procedure 5 below.” left out

[5] = carbon source at optimum concentration, control 1.0 wt% fumaric acid

Compound	creatinine iminohydrolase yield of microbial cells (in words) [1]	growth of the culture and enzyme production (in words) [1]	Optimum Concentration (carbon source) [1] [Wt. %]	Creatinine Iminohydrolase Activity % of Control [1, 5]	further results
CC(=O)O [Acetic Acid]	yielding only small amounts of creatinine iminohydrolase	did not support the growth of the culture or produce a detectable amount of enzyme	0.1		
C[C@H](N)C(=O)O [Alanine]			1.0	35 % of Control	
N[C@@H](CC(=O)O)C(=O)O [Aspartic Acid]	yielding only small amounts of creatinine iminohydrolase	the culture grew well but these sources repressed enzyme synthesis	1.0		
O=C(O)CC(O)(CC(=O)O)C(=O)O [Citric Acid]		acceptable levels of microbial growth and enzyme production	1.0	71 % of Control	
CN1CC(=O)NC1=N [Creatinine]					optimum concentration [1]: 0.5%
O=C(O)/C=C/C(=O)O [Fumaric Acid, Fumaric acid]		good enzyme production and good growth of the microorganism	1.0	100 % of Control	optimum concentration [1]: 1.0%
OC[C@H]1OC(O)[C@H](O)[C@@H](O)[C@@H]1O (stereo partly drawn) [Glucose]		acceptable levels of microbial growth and enzyme production	1.0	51 % of Control	Creatinine Iminohydrolase Activity [2]: 720 U/liter; Creatinine Iminohydrolase Activity % of Control [2]: 134 % of Control; Creatinine Iminohydrolase Activity % of Control ([1]; Procedure No. 2, glucose 1.0 wt% added, or control 0.0 wt%): 135 % of Control; Dry Cell Weight (microorganism ATCC 31546 [3]): 3.92 g/L; Dry Cell Weight (microorganism ATCC 31546 [4]): 3.31 g/L
N[C@@H](CCC(=O)O)C(=O)O [Glutamic Acid]	yielding only small amounts of creatinine iminohydrolase	the culture grew well but these sources repressed enzyme synthesis	1.0		
OCC(O)CO [Glycerol]	yielding only small amounts of creatinine iminohydrolase	did not support the growth of the culture or produce a detectable amount of enzyme	0.5		
NCC(=O)O [Glycine]	yielding only small amounts of creatinine iminohydrolase	did not support the growth of the culture or produce a detectable amount of enzyme	0.5		
O=C(O)CCC(=O)C(=O)O [Ketoglutaric Acid, α-Ketoglutaric acid]		good growth of the microorganism and produced more than twice as much enzyme as did the fumaric acid control	1.0	205 % of Control	
CC(O)C(=O)O (stereo not drawn) [Lactic Acid]		acceptable levels of microbial growth and enzyme production	0.5	8 % of Control	
O=C(O)CC(O)C(=O)O (stereo not drawn) [Malic Acid]		acceptable levels of microbial growth and enzyme production	1.0	100 % of Control	
CC(=O)C(=O)O [Pyruvic Acid]		supported good enzyme production although somewhat lower growth of the microorganism was obtained	0.5	105 % of Control	
O=C(O)CCC(=O)O [Succinic Acid]		acceptable levels of microbial growth and enzyme production	1.0	49 % of Control	
OC[C@H]1O[C@@](CO)(O[C@H]2O[C@H](CO)[C@@H](O)[C@H](O)[C@H]2O)[C@@H](O)[C@@H]1O [Sucrose]	yielding only small amounts of creatinine iminohydrolase	did not support the growth of the culture or produce a detectable amount of enzyme	0.5		
